This passage reports TGI results from PubChem BioAssay (NCI).

Molecules are shown by their SMILES.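 Values below derive from 48-hour exposures of cells grown in 96-well plates, with endpoints linearly interpolated between the two concentrations bracketing the appropriate inhibition level. TGI: concentration producing complete growth inhibition.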 Bounds are passed on as bounds.

Test systems include PC-3 prostate; P388 leukemia; KM20L2 colon; HOP-18 NSCLC; P388/ADR leukemia; SNB-78 CNS; XF 498 CNS; MDA-N; SN12K1 renal; RXF-631 renal.
Holding throughout (assay): NCI tumour cell line growth inhibition, 48 h

As for `CC1(C)N=C(N)N=C(N)N1c1ccc(CCCCc2ccc(S(=O)(=O)F)cc2Cl)c(Cl)c1`, the TGI in the experiment on PC-3 prostate was 112 µM; in the experiment on P388 leukemia, 6.36 µM; in the experiment with KM20L2 colon, 163 µM; in the experiment with HOP-18 NSCLC, 121 µM; in the experiment with P388/ADR leukemia it was 7.56 µM; in the experiment on SNB-78 CNS, 48.6 µM. Further, the results for the TGI in the experiment on XF 498 CNS, with MDA-N and with SN12K1 renal were 3 µM, 39.5 µM and 6.92 µM, respectively.

For the molecule `CCOC(=O)CCCO`, the TGI with KM20L2 colon, in the experiment on HOP-18 NSCLC, in the experiment with RXF-631 renal and in the experiment with XF 498 CNS was over 100 µM throughout.

On to `COc1cc2c(c(O)c1C)C(=O)C(Cl)=CC2=O`, for which the TGI with PC-3 prostate turned out to be 28.7 µM; with KM20L2 colon, 49.1 µM; with HOP-18 NSCLC, 30.1 µM; in the experiment on RXF-631 renal, 17.6 µM; with SNB-78 CNS, 17.4 µM; with XF 498 CNS, 35.2 µM. In the experiment on MDA-N, this molecule returned a TGI of 12.1 µM.

For the molecule `C#CC(C)(C)Oc1cc(O)c2c(=O)c3ccccc3n(C)c2c1`, the TGI with KM20L2 colon, with HOP-18 NSCLC, with RXF-631 renal, with SNB-78 CNS and in the experiment on XF 498 CNS was over 100 µM throughout.

On to `O=C1CC[C@H]2CNC(=O)C[C@H]2C1`, for which the TGI in the experiment on RXF-631 renal, with SNB-78 CNS and in the experiment on XF 498 CNS was over 100 µM in each case.

Take `Cc1cc(C)nc(NS(=O)(=O)c2ccc(NC(=O)c3cccc4c(=O)c5ccccc5[nH]c34)cc2)n1`: the TGI is 40.5 µM with KM20L2 colon; 47.2 µM with HOP-18 NSCLC; over 100 µM in the experiment with RXF-631 renal; 48.6 µM with SNB-78 CNS; 40.6 µM with XF 498 CNS.

For `CN(C)CCNC(=O)c1cccc2nc3c(Cl)cccc3nc12`, the TGI in the experiment with KM20L2 colon is 32.2 µM; with HOP-18 NSCLC, over 88 µM; with RXF-631 renal it was over 100 µM; with XF 498 CNS, 11.7 µM.

Turning to `OCc1c(-c2cccc3ccccc23)sc(-c2cccc3ccccc23)c1CO`, the TGI turned out to be 24.6 µM in the experiment with KM20L2 colon; 26.4 µM in the experiment on HOP-18 NSCLC; 37.9 µM with RXF-631 renal; 31.5 µM with SNB-78 CNS; 19.3 µM in the experiment on XF 498 CNS.

As to `C/C(=N\NC(N)=S)c1ccc(C)cc1C`, the TGI with KM20L2 colon, with HOP-18 NSCLC, in the experiment on RXF-631 renal, in the experiment with SNB-78 CNS and with XF 498 CNS was over 100 µM in each case.

`CN1CCCNCCN(CCc2ccccn2)CCCN(C)CC1`: the TGI in the experiment on KM20L2 colon, in the experiment on HOP-18 NSCLC, with RXF-631 renal, in the experiment on SNB-78 CNS and in the experiment on XF 498 CNS was over 100 µM each time.

As to `COc1cc2c(cc1O)[C@H](Cc1ccc(Oc3cc(C[C@H]4c5cc(OC)c(OC)cc5CCN4C)ccc3OC)cc1)NCC2`, the TGI in the experiment with KM20L2 colon worked out at 22.7 µM; in the experiment with HOP-18 NSCLC, 32.7 µM; in the experiment on RXF-631 renal, 32 µM; with XF 498 CNS it was 24 µM.
